What was measured:
[1] = tested on: NF-κB p65 in LPS-stimulated RAW264.7 cells; assay: NF-κB nuclear translocation, immunocytochemistry; type: cell-based, mouse; conditions: pre-treatment 2 h prior to LPS 1 µg/mL for 16 h
Method: RAW264.7 cells cultured on round cover slips coated with poly-L-lysine were treated with triterpenoids (1 or 3 µg/mL) 2 h prior to LPS treatment, followed by LPS (1 µg/mL) for 16 h. The cells were washed with 1 x phosphate buffered saline (PBS) and fixed with 4% paraformaldehyde for 30 min. After washing the fixed cells with PBS, the cells were permeabilized with a blocking buffer (1% normal goat serum and 0.2% Triton X-100 in PBS) for 30 min at room temperature, and were incubated with an anti-NF-κB p65 antibody (1:200 dilution, Cell Signaling Technology, Danvers, MA, USA) at 4 °C overnight. After three washes in PBS, the cells were incubated in the dark for 1 h with the mixture of FITC-conjugated anti-rabbit IgG fluorescent secondary antibody diluted at 1:500 in PBS. Finally, the cells were stained with 2 µg/mL Hoechst for nuclei staining. The cells were washed with PBS, wet-mounted on glass slides, and observed using a confocal laser-scanning microscope (Olympus, Tokyo, Japan). The negative control (NC) was analyzed by omitting the primary antibody.

[2] = target: T1, Human neutrophil elastase (HNE, EC 3.4.21.37) (Homo sapiens, UniProt P08246); assay: Human neutrophil elastase inhibition, spectrophotometric, MeOSuc-AAPV-pNA substrate; type: biochemical
T1 construct: purchased Sigma-Aldrich
T1 sequence (P08246 30-267): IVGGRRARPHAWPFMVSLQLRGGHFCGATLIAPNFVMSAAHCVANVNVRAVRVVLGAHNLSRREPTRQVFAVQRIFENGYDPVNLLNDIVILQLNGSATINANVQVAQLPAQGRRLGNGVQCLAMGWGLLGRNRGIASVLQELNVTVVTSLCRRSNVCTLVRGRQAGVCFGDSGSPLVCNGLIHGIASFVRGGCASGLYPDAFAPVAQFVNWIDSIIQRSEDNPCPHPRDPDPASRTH
Method: Human neutrophil elastase (EC 3. 4. 21. 37) (Sigma-Aldrich, St. Louis, MO, USA) activity was measured in accordance with the previous description with subtle modification, by observing the formation of p-nitroaniline after the hydrolysis of N-methoxysuccinyl-Ala-Ala-Pro-Val-p-nitro anilide at 405 nm. The inhibitors were dissolved in dimethyl sulfoxide (DMSO) and diluted to a few concentrations. In brief, in a 96-well plate, 10 µL of inhibitor solution and 40 µL of 1.5 mM of MeOSuc-AAPV-pNA were added as a substrate in the 0.02 mM Tris-HCl buffer solutions (pH 8.0). Then, 20 µL of human neutrophil elastase (0.2 unit/mL) was added to the mixture. The test mixtures were incubated and mixed for 15 min at room temperature and then screened at 405 nm for 30 min every 30 s.
Activity (%) = 100 [1/(1 + ([I]/IC50))].(1)
The modalities of HNE inhibition were estimated in experiments using particular concentrations of the substrates and inhibitors, respectively. The Michaelis–Menten constant (Km) and maximal velocity (Vmax) were investigated by a Lineweaver–Burk plot. The KI, dissociation constants for inhibitor binding to the free enzyme were calculated using a Dixon plot. Equations (2)–(4) are representatives for deriving the aforementioned parameters. (2) 1/V=Km/Vmax(1+[I]/Ki)×1/S+1/Vmax (3) Slop=Km/KiVmax[I]+Km/Vmax (4) Intercept=1/KiVmax[I]+1/Vmax.

[3] = target: T2, Human neutrophil elastase (HNE) (Homo sapiens, UniProt P08246); assay: Fluorescence quenching binding affinity to HNE; conditions: inhibitor 7.8–31.2 µM
T2 construct: purchased Sigma-Aldrich
T2 sequence (P08246 30-267): T1 sequence (P08246 30-267)
Method: To measure fluorescence from the HNE enzyme, 10 μL of 0.01 unit/mL enzyme solution with 180 μL of Tris-HCl buffer (0.02 mM) was accurately added into the 96-well black immunoplates. Then, 10 μL of incremental concentrations (7.8–31.2 μΜ) of inhibitors were added into each well. All fluorescence spectra were measured from 280 to 400 nm with emission slits regulated to 2.0 nm, and the excitation wavelength was 260 nm. The Stern–Volmer quenching constant (KSV) was calculated using Equation (5). All experiments were conducted in triplicate, and the mean values were calculated. (5) […]=1+KSV[Q], where F0 and F are the fluorescence intensities in the absence and presence of quencher (Q). KSV is the Stern–Volmer quenching constant [LM^−1]. For static quenching, the correlation between the fluorescence intensity and the concentration of quencher for the series of reactions can be estimated by Equation (6). (6) log[(F0−F)/F]=logKA+nlog[Q]f.
F0 and F are the fluorescence intensities in the absence and presence of inhibitor; KA is the binding constant; n is the number of binding sites of the enzyme; Qf is the concentration of inhibitor.

Row | SMILES | NF-κB translocation to the nucleus (immunocytochemical staining) [1] | Ki ([2]; Dixon plots, read-out: Ki (inhibition constant)) [µM] | Type of Inhibition ([2]; Lineweaver-Burk and Dixon plots, reversibility from activity vs enzyme concentration plots) | fold better HNE inhibition than monocyclic compounds (1 and 2) ([2]; compared with compounds 1 and 2) | IC50 ([2]; concentration that caused 50% enzyme activity loss, three sets of experiments) [µM] | n (number of binding sites of the enzyme) [3] | Kd ([3]; read-out: KA (association constant of the complex of enzyme and quencher) (converted)) [µM] | KSV (Stern-Volmer quenching constant) ([3]; λEx 260 nm, λEm 280–400 nm) [L/mol]
1 | CC(C)(C)c1ccc(S(=O)(=O)/C=C/C#N)cc1 [Bay 11-7085, reference compound] | suppressed | – | – | – | – | – | – | –
2 | COC1OC(C=C(C)C=CC=C(C)CCC=C(C)C)CC12C(CCCO)C(=C(C)C=O)CCC2(C)O (centres unmarked) [Compound 3, iridobelamal B] | – | 6.2 | noncompetitive inhibitor | 2–3 fold | 6.8 ± 0.3 | 0.9727 | 13.5 | 67640

Reference: publication PMC8588536, “Iridal-Type Triterpenoids Displaying Human Neutrophil Elastase Inhibition and Anti-Inflammatory Effects from Belamcanda chinensis” (Molecules, 2021)
